Source: ChEMBL document CHEMBL1145413, “Dehydroxychlorofusarielin B, an antibacterial polyoxygenated decalin derivative from the marine-derived fungus Aspergillus sp” (2007)
Converted amounts (≈) assume the structure as drawn.

Columns and labels:
Type in all cases: functional
[1] = test system: Staphylococcus aureus; assay: Antibacterial activity against methicillin-resistant Staphylococcus aureus after 18 hrs by dilution method
[2] = test system: Staphylococcus aureus; assay: Antibacterial activity against Staphylococcus aureus after 18 hrs by dilution method
[3] = test system: Staphylococcus aureus; assay: Antibacterial activity against multidrug-resistant Staphylococcus aureus after 18 hrs by dilution method

Compound	MIC [1] [µg/mL]	MIC [2] [µg/mL]	MIC [3] [µg/mL]
C/C=C(\C)[C@H]1[C@@H](/C=C/C=C(\C)[C@@H](O)[C@@H](C)CO)[C@@H]2C[C@@H](Cl)[C@](C)(O)C[C@H]2[C@@H]2O[C@@]21C [DEHYDROXYCHLOROFUSARIELIN B]	62.5 (≈ 142 µM)	62.5 (≈ 142 µM)	62.5 (≈ 142 µM)
C/C=C(\C)[C@H]1[C@@H](/C=C/C=C(\C)[C@@H](O)[C@@H](C)CO)[C@@H]2C[C@@H]3O[C@]3(C)C[C@H]2[C@@H]2O[C@@]21C [FUSARIELIN A]	32.5 (≈ 80.7 µM)	32.5 (≈ 80.7 µM)	62.5 (≈ 155 µM)
C/C=C(\C)[C@H]1[C@@H](/C=C/C=C(\C)[C@@H](O)[C@@H](C)CO)[C@@H]2C[C@@H](O)[C@](C)(O)C[C@H]2[C@@H]2O[C@@]21C [FUSARIELIN B]	62.5 (≈ 149 µM)	62.5 (≈ 149 µM)	62.5 (≈ 149 µM)
